Legend:
clinical [1] = conditions: human, in vivo, iv, Vdss
clinical [2] = conditions: human, in vivo, iv, t1/2
clinical [3] = conditions: human, in vivo, iv
[4] = human, in vivo, iv
[5] = human, in vivo, iv; remark: listed apart in the source
[6] = human, in vivo, iv; remark: listed apart in the source
clinical [7] = conditions: human, in vivo, iv; remark: listed apart in the source
[8] = human, in vivo, iv; remark: listed apart in the source
[9] = human, in vivo, iv; remark: listed apart in the source

Work on O=C(CCCN1CCC(O)(c2ccc(Cl)cc2)CC1)c1ccc(F)cc1 [HALOPERIDOL] yielded a Vd (clinical [1]) of 17 L/kg, a half-life (clinical [2]) of 35 h and an MRT (clinical [3]) of 36 h. The fu [4] was 0.08.

Molecule GENTAMICIN has a t1/2 [5] of 4.7 h, a fu [4] of 1 and an MRT [6] of 5.5 h.

Work on CCC1=C[C@@H]2CN(C1)Cc1c([nH]c3ccccc13)[C@@](C(=O)OC)(c1cc3c(cc1OC)N(C)[C@H]1[C@@](O)(C(=O)OC)[C@H](OC(C)=O)[C@]4(CC)C=CCN5CC[C@]31[C@@H]54)C2 (stereo in doubt; form 2) [VINORELBINE] yielded a fraction unbound (clinical [7]) of 0.87, a t1/2 [5] of 26 h and a Vdss [8] of 23 L/kg. It also gave an MRT [6] of 18 h and a CL [9] of 20 mL/min/kg.

In the case of CARBOPLATIN, the t1/2 [5] is reported as 2 h, the Vdss [8] is reported as 0.26 L/kg and the fu [4] is reported as 1. It also gave an MRT [6] of 3 h and a CL [9] of 1.5 mL/min/kg.

With COC(=O)C(c1ccccc1)C1CCCCN1 (configuration not stated) [METHYLPHENIDATE] the fraction unbound (clinical [7]) was 0.85, the t1/2 [5] was 4.8 h and the Vdss [8] was 2.2 L/kg. For the same molecule, the MRT [6] was 4.5 h and the CL [9] was 0.55 mL/min/kg.

With O=P1(N(CCCl)CCCl)NCCCO1 (configuration not stated) [CYCLOPHOSPHAMIDE ANHYDROUS] the MRT (clinical [3]) was 11 h, the t1/2 [5] was 8 h and the CL [9] was 1.1 mL/min/kg.

C[C@H]1[C@H](OC(=O)CCC(=O)O)O[C@@H]2O[C@@]3(C)CC[C@H]4[C@H](C)CC[C@@H]1[C@@]24OO3 [ARTESUNATE] gave a half-life (clinical [2]) of 0.22 h, a fraction unbound (clinical [7]) of 0.25 and an MRT (clinical [3]) of 0.32 h. The CL [9] was 1070 mL/min/kg.

For O=[N+]([O-])O[C@@H]1CO[C@H]2[C@@H]1OC[C@@H]2O (stereo in doubt; form 2) [ISOSORBIDE MONONITRATE], the Vd (clinical [1]) was 0.7 L/kg, the t1/2 [5] was 4.1 h and the MRT [6] was 5.8 h. It also gave a CL [9] of 2 mL/min/kg.

O=[N+]([O-])O[C@@H]1CO[C@H]2[C@@H]1OC[C@@H]2O (stereo in doubt; form 1) [ISOSORBIDE MONONITRATE] gave a t1/2 [5] of 1.9 h, a Vdss [8] of 0.86 L/kg and an MRT [6] of 2.3 h. For the same molecule, the CL [9] was 6.2 mL/min/kg.

For GADOVERSETAMIDE, the t1/2 [5] was 1.7 h, the Vdss [8] was 0.16 L/kg and the fu [4] was 1. For the same molecule, the MRT [6] was 2.2 h and the CL [9] was 1.2 mL/min/kg.

Source: ChEMBL document CHEMBL1614632, “Trend analysis of a database of intravenous pharmacokinetic parameters in humans for 670 drug compounds” (Drug Metab Dispos, 2008)
